Assay results from article PMC2229574 (The Journal of General Physiology, 2003).
Where “and” joins values, the source holds several entries; their conditions need not be identical. Identical values can stand only once. Like-named read-outs stand apart in the source and are kept apart here.

Assays:
[1] = target: T1, mouse AChR αD97H (Mus musculus, UniProt P02716+P04756+P20782, D117H); conditions: for L2: kinetic modeling
[2] = target: mouse AChR αD97G (Mus musculus, UniProt P02716+P04756+P20782, D117G); conditions: for β2 (diliganded channel opening rate constant): 20 mM choline
[3] = target: mouse AChR β-subunit G98V (Mus musculus, UniProt P02716+P04756+P09690+P20782, G121V); conditions: 20 mM choline
[4] = system: hybrid AChR (one wild-type α-subunit and one D97A α-subunit), hybrid 1; conditions: 20 mM choline
[5] = target: mouse AChR ɛ-subunit D97A (Mus musculus, UniProt P02716+P04756+P20782, D117A); conditions: 20 mM choline
[6] = target: mouse AChR αD97M (Mus musculus, UniProt P02716+P04756+P20782, D117M)
[7] = target: mouse AChR αD97F (Mus musculus, UniProt P02716+P04756+P20782, D117F)
[8] = target: mouse AChR αD97L (Mus musculus, UniProt P02716+P04756+P20782, D117L)
[9] = target: mouse AChR αD97V (Mus musculus, UniProt P02716+P04756+P20782, D117V)
[10] = target: mouse AChR β-subunit D97V (Mus musculus, UniProt P02716+P04756+P09690+P20782, D120V); conditions: 20 mM choline
[11] = target: mouse AChR δ-subunit N98V (Mus musculus, UniProt P02716+P04756+P20782, N122V); conditions: 20 mM choline
[12] = target: mouse AChR β-subunit D97A (Mus musculus, UniProt P02716+P04756+P09690+P20782, D120A); conditions: 20 mM choline
[13] = target: mouse AChR αD97Q (Mus musculus, UniProt P02716+P04756+P20782, D117Q)
[14] = system: hybrid AChR (one wild-type α-subunit and one D97A α-subunit), hybrid 2; conditions: 20 mM choline
[15] = target: mouse AChR αD97R (Mus musculus, UniProt P02716+P04756+P20782, D117R)
[16] = target: mouse AChR β-subunit G98A (Mus musculus, UniProt P02716+P04756+P09690+P20782, G121A); conditions: 20 mM choline
[17] = target: mouse AChR αD97N (Mus musculus, UniProt P02716+P04756+P20782, D117N)
[18] = target: mouse AChR αD97Y (Mus musculus, UniProt P02716+P04756+P20782, D117Y)
[19] = target: T2, wild-type mouse AChR (α2βδɛ) (Mus musculus, UniProt P02716+P04756+P20782); conditions: wt; for L2: choline (Table III / text)
[20] = target: mouse AChR αD97C (Mus musculus, UniProt P02716+P04756+P20782, D117C)
[21] = target: mouse AChR δ-subunit D99A (Mus musculus, UniProt P02716+P04756+P20782, D123A); conditions: 20 mM choline
[22] = target: T3, mouse AChR αD97E (Mus musculus, UniProt P02716+P04756+P20782, D117E); test: cell-based
[23] = target: T2, wild-type mouse AChR (α2βδɛ); conditions: cited from earlier work
[24] = target: mouse AChR αD97P (Mus musculus, UniProt P02716+P04756+P20782, D117P); conditions: for α2 (diliganded channel closing rate constant): 0.4 mM choline; for β2 (diliganded channel opening rate constant): 20 mM choline; for L2 (diliganded gating equilibrium constant, β2/α2) / L2-ratio (mut/wt): choline
[25] = target: T1, mouse AChR αD97H; test: cell-based
[26] = target: mouse AChR αD97A (Mus musculus, UniProt P02716+P04756+P20782, D117A)
[27] = target: mouse AChR ɛ-subunit D97V (Mus musculus, UniProt P02716+P04756+P20782, D117V); conditions: 20 mM choline
[28] = target: T3, mouse AChR αD97E; conditions: for L2: kinetic modeling
[29] = target: mouse AChR δ-subunit N98A (Mus musculus, UniProt P02716+P04756+P20782, N122A); conditions: 20 mM choline
[30] = target: mouse AChR δ-subunit D99V (Mus musculus, UniProt P02716+P04756+P20782, D123V); conditions: 20 mM choline
[31] = target: mouse AChR αD97I (Mus musculus, UniProt P02716+P04756+P20782, D117I)
[32] = choline, Scheme I, listed as Choline
[33] = joint fit choline 1, 2 and 5 mM, Scheme I
[34] = read-out: k+ (association rate constant, single TBS)
[35] = read-out: k− (dissociation rate constant, single TBS)

mouse AChR αD97A, sequence (P04756 21-457 D117A): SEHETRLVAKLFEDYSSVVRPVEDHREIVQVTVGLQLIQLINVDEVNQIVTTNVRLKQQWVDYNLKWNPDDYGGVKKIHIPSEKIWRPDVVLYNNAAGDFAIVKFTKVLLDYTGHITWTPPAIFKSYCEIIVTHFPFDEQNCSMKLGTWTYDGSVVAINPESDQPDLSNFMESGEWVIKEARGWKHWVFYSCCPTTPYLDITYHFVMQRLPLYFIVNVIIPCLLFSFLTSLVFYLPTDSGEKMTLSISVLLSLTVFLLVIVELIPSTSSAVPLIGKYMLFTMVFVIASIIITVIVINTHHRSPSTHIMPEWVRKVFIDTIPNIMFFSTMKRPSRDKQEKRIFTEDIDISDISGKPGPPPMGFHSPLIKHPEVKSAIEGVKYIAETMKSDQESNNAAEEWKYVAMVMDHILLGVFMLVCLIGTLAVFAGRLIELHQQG
mouse AChR αD97A, sequence (P09690 24-501 partner): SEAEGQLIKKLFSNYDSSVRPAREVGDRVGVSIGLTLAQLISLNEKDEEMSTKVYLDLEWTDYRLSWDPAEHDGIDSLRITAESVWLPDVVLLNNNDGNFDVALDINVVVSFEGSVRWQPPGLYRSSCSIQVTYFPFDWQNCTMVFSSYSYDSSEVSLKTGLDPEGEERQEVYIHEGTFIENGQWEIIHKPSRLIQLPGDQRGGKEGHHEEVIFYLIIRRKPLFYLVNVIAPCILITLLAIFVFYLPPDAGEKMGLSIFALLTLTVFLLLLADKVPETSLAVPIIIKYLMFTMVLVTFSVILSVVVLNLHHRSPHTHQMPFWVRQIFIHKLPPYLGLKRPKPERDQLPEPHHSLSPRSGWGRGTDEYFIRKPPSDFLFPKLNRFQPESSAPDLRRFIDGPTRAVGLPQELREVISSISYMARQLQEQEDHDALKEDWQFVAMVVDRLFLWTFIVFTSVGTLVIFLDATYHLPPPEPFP
mouse AChR αD97A, sequence (P02716 25-520): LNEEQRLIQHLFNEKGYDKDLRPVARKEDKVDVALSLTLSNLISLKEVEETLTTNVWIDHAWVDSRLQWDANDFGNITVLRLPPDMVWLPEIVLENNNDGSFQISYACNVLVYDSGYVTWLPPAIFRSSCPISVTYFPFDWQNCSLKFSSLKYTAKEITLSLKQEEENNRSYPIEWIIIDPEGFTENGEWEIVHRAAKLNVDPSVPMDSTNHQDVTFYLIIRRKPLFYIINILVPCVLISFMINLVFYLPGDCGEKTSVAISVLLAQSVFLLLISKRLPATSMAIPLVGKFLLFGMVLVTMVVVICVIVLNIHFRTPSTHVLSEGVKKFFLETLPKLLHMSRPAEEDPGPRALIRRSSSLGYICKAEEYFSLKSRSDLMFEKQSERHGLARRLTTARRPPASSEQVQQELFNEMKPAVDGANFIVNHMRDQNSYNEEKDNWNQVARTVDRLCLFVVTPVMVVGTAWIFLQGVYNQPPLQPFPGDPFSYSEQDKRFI
mouse AChR αD97A, sequence (P20782 21-493, stated change not applied): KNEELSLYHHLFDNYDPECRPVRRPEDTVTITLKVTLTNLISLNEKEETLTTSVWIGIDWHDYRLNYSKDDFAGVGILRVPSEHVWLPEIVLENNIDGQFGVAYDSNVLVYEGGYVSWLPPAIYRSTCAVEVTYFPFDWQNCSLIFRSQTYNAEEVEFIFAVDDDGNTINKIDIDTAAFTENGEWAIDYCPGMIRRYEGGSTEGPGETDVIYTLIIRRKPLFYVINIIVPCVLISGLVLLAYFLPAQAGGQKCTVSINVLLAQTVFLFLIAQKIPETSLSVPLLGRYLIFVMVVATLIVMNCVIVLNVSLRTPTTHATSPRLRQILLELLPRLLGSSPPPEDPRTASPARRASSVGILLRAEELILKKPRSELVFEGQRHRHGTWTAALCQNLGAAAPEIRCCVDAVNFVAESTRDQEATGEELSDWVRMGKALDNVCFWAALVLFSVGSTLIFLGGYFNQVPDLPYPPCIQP
mouse AChR αD97N, sequence (P04756 21-457 D117N): as the sequence (P04756 21-457 D117A) above, with A97N counted along it
mouse AChR αD97N, sequence (P09690 24-501 partner): as the sequence (P09690 24-501 partner) above
mouse AChR αD97N, sequence (P02716 25-520): as the sequence (P02716 25-520) above
mouse AChR αD97N, sequence (P20782 21-493, stated change not applied): as the sequence (P20782 21-493, stated change not applied) above

C[N+](C)(C)CCO [choline]
α2 (diliganded channel closing rate constant) ([1]; 0.4 mM choline): 1,938 s^−1 | β2 (diliganded channel opening rate constant) ([1]; 20 mM choline): 1,840 s^−1 | L2 (diliganded gating equilibrium constant, β2/α2) ([1]; choline): 0.949 | L2-ratio (mut/wt) ([1]; choline): 19.94 | L2 (equilibrium gating constant) from Popen dose–response analysis ([1]; choline, fit by Eq. 2): 1.1 ± 0.5 | L2 ([1]; choline, Scheme I): 1.2 ± 0.1 | L2 [1, 32]: 1.15 ± 0.14 | α2 [1, 33]: 2,759 ± 149 s^−1 | β2 [1, 33]: 3,189 ± 168 s^−1 | α2 (diliganded channel closing rate constant) ([2]; αD97G kinetic mode G1, 0.4 mM choline): 2,105 s^−1 | β2 (diliganded channel opening rate constant) ([2]; αD97G kinetic mode G1): 421 s⁻¹ | L2 (diliganded gating equilibrium constant, β2/α2) ([2]; αD97G kinetic mode G1, choline): 0.200 | L2-ratio (mut/wt) ([2]; αD97G kinetic mode G1, choline): 4.20 | β2 (diliganded channel opening rate constant) ([2]; αD97G kinetic mode G2): 570 s⁻¹ | L2 (diliganded gating equilibrium constant, β2/α2) ([2]; αD97G kinetic mode G2, choline): 0.605 | α2* (apparent channel closing rate constant) [3]: 471 s⁻¹ | β2 (channel opening rate constant) [3]: 80 s⁻¹ | ΔΔG0 for channel gating, 0.59 ln(L2^wt/L2^mut) [4]: 1.96 kcal mol^−1 | α2* (apparent channel closing rate constant) [5]: 645 s⁻¹ | β2 (channel opening rate constant) [5]: 64 s⁻¹ | α2 (diliganded channel closing rate constant) ([6]; 0.4 mM choline): 2,255 s^−1 | β2 (diliganded channel opening rate constant) ([6]; 20 mM choline): 835 s⁻¹ | L2 (diliganded gating equilibrium constant, β2/α2) ([6]; choline): 0.370 | L2-ratio (mut/wt) ([6]; choline): 7.78 | α2 (diliganded channel closing rate constant) ([7]; 0.4 mM choline): 1,831 s^−1 | β2 (diliganded channel opening rate constant) ([7]; 20 mM choline): 2,748 s^−1 | L2 (diliganded gating equilibrium constant, β2/α2) ([7]; choline): 1.501 | L2-ratio (mut/wt) ([7]; choline): 31.52 | α2 (diliganded channel closing rate constant) ([8]; 0.4 mM choline): 2,684 s^−1 | β2 (diliganded channel opening rate constant) ([8]; 20 mM choline): 91 s⁻¹ | L2 (diliganded gating equilibrium constant, β2/α2) ([8]; choline): 0.034 | L2-ratio (mut/wt) ([8]; choline): 0.71 | α2 (diliganded channel closing rate constant) ([9]; 0.4 mM choline): 1,974 s^−1 | β2 (diliganded channel opening rate constant) ([9]; 20 mM choline): 161 s⁻¹ | L2 (diliganded gating equilibrium constant, β2/α2) ([9]; choline): 0.082 | L2-ratio (mut/wt) ([9]; choline): 1.71 | α2* (apparent channel closing rate constant) [10]: 762 s⁻¹ | β2 (channel opening rate constant) [10]: 85 s⁻¹ | α2* (apparent channel closing rate constant) [11]: 437 s⁻¹ | β2 (channel opening rate constant) [11]: 62 s⁻¹ | α2* (apparent channel closing rate constant) [12]: 1,320 s^−1 | β2 (channel opening rate constant) [12]: 72 s⁻¹ | α2 (diliganded channel closing rate constant) ([13]; 0.4 mM choline): 2,016 s^−1 | β2 (diliganded channel opening rate constant) ([13]; 20 mM choline): 6,006 s^−1 | L2 (diliganded gating equilibrium constant, β2/α2) ([13]; choline): 2.979 | L2-ratio (mut/wt) ([13]; choline): 62.56 | ΔΔG0 for channel gating, 0.59 ln(L2^wt/L2^mut) [14]: 0.95 kcal mol^−1 | α2 (diliganded channel closing rate constant) ([15]; 0.4 mM choline): 1,653 s^−1 | β2 (diliganded channel opening rate constant) ([15]; 20 mM choline): 10,951 s^−1 | L2 (diliganded gating equilibrium constant, β2/α2) ([15]; choline): 6.624 | L2-ratio (mut/wt) ([15]; choline): 139.12 | α2* (apparent channel closing rate constant) [16]: 861 s⁻¹ | β2 (channel opening rate constant) [16]: 49 s⁻¹ | α2 (diliganded channel closing rate constant) ([17]; 0.4 mM choline): 2,379 s^−1 | β2 (diliganded channel opening rate constant) ([17]; 20 mM choline): 268 s⁻¹ | L2 (diliganded gating equilibrium constant, β2/α2) ([17]; choline): 0.113 | L2-ratio (mut/wt) ([17]; choline): 2.37 | α2 (diliganded channel closing rate constant) ([18]; 0.4 mM choline): 1,992 s^−1 | β2 (diliganded channel opening rate constant) ([18]; 20 mM choline): 1,396 s^−1 | L2 (diliganded gating equilibrium constant, β2/α2) ([18]; choline): 0.701 | L2-ratio (mut/wt) ([18]; choline): 14.72 | α2 (diliganded channel closing rate constant) ([19]; 0.4 mM choline): 2,100 s^−1 | β2 (diliganded channel opening rate constant) ([19]; 20 mM choline): 100 s⁻¹ | β2 (channel opening rate constant) ([19]; 20 mM choline (Table VIII)): 100 s⁻¹ | α2* (apparent channel closing rate constant) ([19]; 20 mM choline, ∼2-fold smaller than α2 because of channel block): 1,100 s^−1 | L2 (diliganded gating equilibrium constant, β2/α2) ([19]; choline): 0.048 | β2 ([19]; choline (Table III / Fig. 4)): 100 s⁻¹ | L2 [19]: 0.05 | L2 ([19]; listed as Choline): 0.047 | α2 ([19]; choline (Table III)): 2,100 s^−1 | α2 (diliganded channel closing rate constant) ([20]; 0.4 mM choline): 2,172 s^−1 | β2 (diliganded channel opening rate constant) ([20]; 20 mM choline): 531 s⁻¹ | L2 (diliganded gating equilibrium constant, β2/α2) ([20]; choline): 0.244 | L2-ratio (mut/wt) ([20]; choline): 5.13 | α2* (apparent channel closing rate constant) [21]: 630 s⁻¹ | β2 (channel opening rate constant) [21]: 146 s⁻¹ | Kd ([22]; Kd (k−/k+), αD97E, choline, kinetic modeling, Scheme I): 2100 µM and 2140 µM | kon [22, 34]: 2.84e+06 M⁻¹ s⁻¹ | koff [22, 35]: 6070 s⁻¹ | choline dissociation from open AChRs (value subtracted from the α2 estimate) ([23]; ref Cymes et al., 2002): 200 s⁻¹ | channel-opening rate constant, times slower than for ACh ([23]; wt AChRs, ref Zhou et al., 1999, Grosman and Auerbach, 2000a): 500 times | α2 (diliganded channel closing rate constant) ([24]; αD97P kinetic mode P1): 2,276 s^−1 | β2 (diliganded channel opening rate constant) ([24]; αD97P kinetic mode P1): 322 s⁻¹ | L2 (diliganded gating equilibrium constant, β2/α2) ([24]; αD97P kinetic mode P1): 0.141 | L2-ratio (mut/wt) ([24]; αD97P kinetic mode P1): 2.97 | α2 (diliganded channel closing rate constant) ([24]; αD97P kinetic mode P2): 2,276 s^−1 | β2 (diliganded channel opening rate constant) ([24]; αD97P kinetic mode P2): 1,396 s^−1 | L2 (diliganded gating equilibrium constant, β2/α2) ([24]; αD97P kinetic mode P2): 0.613 | L2-ratio (mut/wt) ([24]; αD97P kinetic mode P2): 12.88 | Kd ([25]; Kd (k−/k+), αD97H, choline, kinetic modeling, Scheme I): 2800 µM and 2840 µM | kon [25, 34]: 1.06e+06 M⁻¹ s⁻¹ | koff [25, 35]: 2990 s⁻¹ | ΔΔG0 for channel gating, 0.59 ln(L2^wt/L2^mut) ([26]; double αD97A mutant, 20 mM choline): 3.09 kcal mol^−1 | α2 (diliganded channel closing rate constant) ([26]; αD97A, 0.4 mM choline): 1,719 s^−1 | β2 (diliganded channel opening rate constant) ([26]; αD97A, 20 mM choline): 13,793 s^−1 | L2 (diliganded gating equilibrium constant, β2/α2) ([26]; αD97A, choline): 8.023 | L2-ratio (mut/wt) ([26]; αD97A, choline): 168 | L2-ratio (mut/wt) ([26]; αD97A, choline, listed as Choline): 168.50 | α2* (apparent channel closing rate constant) [27]: 933 s⁻¹ | β2 (channel opening rate constant) [27]: 103 s⁻¹ | α2 (diliganded channel closing rate constant) ([28]; 0.4 mM choline): 2,076 s^−1 | β2 (diliganded channel opening rate constant) ([28]; 20 mM choline): 2,967 s^−1 | L2 (diliganded gating equilibrium constant, β2/α2) ([28]; choline): 1.429 | β2 from saturation of the effective opening rate ([28]; choline, fit by Eq. 1): 2,875 s^−1 | L2 (equilibrium gating constant) from Popen dose–response analysis ([28]; choline, fit by Eq. 2): 2.9 ± 0.7 and 2.9 | L2 ([28]; choline, Scheme I): 1.3 ± 0.2 | L2 [28, 32]: 1.31 ± 0.21 | α2 [28, 33]: 2,293 ± 214 s^−1 | β2 [28, 33]: 3,024 ± 131 s^−1 | α2* (apparent channel closing rate constant) [29]: 1,335 s^−1 | β2 (channel opening rate constant) [29]: 36 s⁻¹ | α2* (apparent channel closing rate constant) [30]: 561 s⁻¹ | β2 (channel opening rate constant) [30]: 117 s⁻¹ | α2 (diliganded channel closing rate constant) ([31]; 0.4 mM choline): 2,801 s^−1 | β2 (diliganded channel opening rate constant) ([31]; 20 mM choline): 60 s⁻¹ | L2 (diliganded gating equilibrium constant, β2/α2) ([31]; choline): 0.022 | L2-ratio (mut/wt) ([31]; choline): 0.45
